Measured values from patent US7879808B2, “Lincomycin derivatives and antimicrobial agents comprising the same as active ingredient” (Meiji Seika Kaisha, Ltd., priority 2007, dated 2011).
≈ marks a conversion by molar mass, not a printed value.

Assays:
Type in all cases: cell-based
S. pneumoniae MSC07571 = assay: MIC against S. pneumoniae MSC07571 (CLSI M7-A7 agar method); details: Sensitivity disk agar-N+5% horse aseptic defibranated blood, about 10^4 CFU/ml; for MIC: Streptococcus pneumoniae, read-out: minimal inhibitory concentration (MIC)
Experimental: (§1) For representative compounds among lincomycin derivatives according to the present invention, the minimal inhibitory concentration (MIC, […]) against various pneumococci was measured according to the method described in Clinical and Laboratory Standards Institute, M7-A7, 2006. Sensitivity disk agar-N+5% horse aseptic defibranated blood was used as the medium for the measurement. The amount of bacteria inoculated was about 10^4 CFU/ml.

S. pneumoniae MSC17994 = assay: MIC against S. pneumoniae MSC17994 (CLSI M7-A7 agar method); set-up: unit not given here; details: Sensitivity disk agar-N+5% horse aseptic defibranated blood, about 10^4 CFU/ml
Experimental: as §1

S. pneumoniae MSC10197 = assay: MIC against S. pneumoniae MSC10197 (CLSI M7-A7 agar method); set-up: unit not given here; details: Sensitivity disk agar-N+5% horse aseptic defibranated blood, about 10^4 CFU/ml
Experimental: as §1

S. pneumoniae MSC07337 = assay: MIC against S. pneumoniae MSC07337 (CLSI M7-A7 agar method); set-up: unit not given here; details: Sensitivity disk agar-N+5% horse aseptic defibranated blood, about 10^4 CFU/ml
Experimental: as §1

S. pneumoniae MSC07465 = assay: MIC against S. pneumoniae MSC07465 (CLSI M7-A7 agar method); set-up: unit not given here; details: Sensitivity disk agar-N+5% horse aseptic defibranated blood, about 10^4 CFU/ml
Experimental: as §1

S. pneumoniae MSC07365 = assay: MIC against S. pneumoniae MSC07365 (CLSI M7-A7 agar method); set-up: unit not given here; details: Sensitivity disk agar-N+5% horse aseptic defibranated blood, about 10^4 CFU/ml
Experimental: as §1

S. pneumoniae MSC07471 = assay: MIC against S. pneumoniae MSC07471 (CLSI M7-A7 agar method); set-up: unit not given here; details: Sensitivity disk agar-N+5% horse aseptic defibranated blood, about 10^4 CFU/ml
Experimental: as §1

Structure (SMILES) | MIC (S. pneumoniae MSC07571) [µg/mL] | minimal inhibitory concentration (MIC) (S. pneumoniae MSC17994) | minimal inhibitory concentration (MIC) (S. pneumoniae MSC10197) | minimal inhibitory concentration (MIC) (S. pneumoniae MSC07337) | minimal inhibitory concentration (MIC) (S. pneumoniae MSC07571) [µg/mL] | minimal inhibitory concentration (MIC) (S. pneumoniae MSC07465) | minimal inhibitory concentration (MIC) (S. pneumoniae MSC07365) | minimal inhibitory concentration (MIC) (S. pneumoniae MSC07471)
CCC[C@@H]1C[C@@H](C(=O)NC(C2OC(SC)C(O)C(O)C2O)[C@H](C)Sc2ccc(CCN(C)C)cc2)N(C)C1 (stereo partly shown) [Compound 1, 7-Deoxy-7-(4-(2-(dimethylamino)ethyl)phenylthio)-7-epilincomycin] | 15 (≈ 26.3 µM) | – | – | – | – | – | – | –
CCC[C@@H]1C[C@@H](C(=O)NC(C2OC(SC)C(O)C(O)C2O)[C@H](C)Sc2ccc(CCN(C)CCN(C)C)cc2)N(C)C1 (stereo partly shown) [Compound 10, 7-Deoxy-7-(4-(2-((2-(dimethylamino)ethyl)-(methyl)amino)ethyl)-phenylthio)-7-epilincomycin] | 60 (≈ 95.7 µM) | – | – | – | – | – | – | –
CSC1OC(C(NC(=O)[C@@H]2C[C@H](CC3CC3)CCN2C)C(C)Sc2ccc(CCN(C)C)nc2)C(O)C(O)C1O (stereo partly drawn) [Compound 52, Methyl 6-N-((2S,4R)-(4-cyclopropylmethyl-1-methyl)piperidine-2-carbonyl)-7-deoxy-7-(6-(2-(dimethylamino)ethyl)-pyridin-3-ylthio)-7-epi-1-thio-α-lincosamide] | – | 0.25 | 0.25 | 32 | 250 (≈ 419 µM) | 0.25 | 64 | 32
CSC1OC(C(NC(=O)[C@@H]2C[C@H](CC3CC3)CCN2C)C(C)Sc2ccc(CCN(C)C3CC3)cc2)C(O)C(O)C1O (stereo partly drawn) [Compound 54, Methyl 7-(4-(2-(cyclopropyl(methyl)-amino)ethyl)phenyl-thio)-6-N-((2S,4R)-4-(cyclopropylmethyl)-1-methylpiperidine-2-carbonyl)-7-deoxy-7-epi-1-thio-α-lincosamide] | – | 0.06 | 0.03 | 2 | 30 (≈ 48.2 µM) | 0.015 | 4 | 2
